{"source": "patent US7514245B2", "about": "“Method for producing chiral α-hydroxycarboxylic acids by enzymatic hydrolysis of chiral cyanohydrins” (DSM Fine Chemicals Austria NFG GmbH & Co. KG, priority 2003, dated 2009)", "key": {"[1]": {"test_system": "Rhodococcus erythropolis NCIMB 11540 cells", "experiment": "Enzymatic hydrolysis at different temperatures, Experiment 6.1", "assay_type": "cell-based", "conditions": "after 2 h, 10 g/l, 5% DMSO", "method": "In Experiment 6.1, the course of the reaction was compared at reaction temperatures of 30° C., 35° C. and 40° C. The batches were carried out on a 5 ml scale using a substrate concentration of 10 g/l of (R)-2-chloromandelonitrile. After complete reaction, the ee of the product was determined.\nThe biocatalyst was produced according to Example 4, Experiment 4.2 (OD546 8.4). In each case 4.75 ml of the cell suspension (resting cells, OD546 52) were used for the enzymatic reactions. Reactions of 50 mg of (R)-2-chloromandelonitrile (>99%) ([S]=60 mM, 10 g/l), dissolved in 250 μl of DMSO (5%) were carried out at 3 different temperatures (30° C., 35° C., 40° C.) in culture tubes at 150 rpm (parallel batches).\n(§1) To monitor the conversion rate by means of HPLC, in each case 200 μl of sample were admixed with 200 μl of 1N HCl, centrifuged (5 min, 13 000 rpm) and diluted before measurement. After complete reaction, the ee of the product was determined."}, "[2]": {"test_system": "Rhodococcus erythropolis NCIMB 11540 cells", "experiment": "Enzymatic hydrolysis using resting cells and lyophilized cells (Example 3)", "assay_type": "cell-based", "conditions": "approximately 20 mM substrate, 30° C.", "method": "The biocatalyst was produced in a similar manner to Example 1, Variant I, 2 culture flasks. After 20 hours (OD546=3.5 and 1.8), cells were centrifuged off from 4 times 10 ml aliquots of fermentation broth and washed once with K/Na—PO4 buffer (pH 6.5, 50 mM). Two of the cell samples were lyophilized before activity determination, and the other two were used as resting cells.\nThe cells were resuspended in 1.8 ml K/Na—PO4 buffer (pH 6.5, 50 mM) (lyophilized cells were shaken for 1 h for rehydration). The reaction was started by adding 200 μl of a 200 mM substrate solution in DMSO (substrate concentration approximately 20 mM) and carried out at 30° C. and 130 rpm in the shaking cabinet. After 30 min, 60 min and 17 h, 200 μl were withdrawn and admixed with 200 μl of 1N HCl. After centrifugation (5 min, 13 000 rpm) and dilution, the conversion rates were determined by means of HPLC. Only the substrate and the two products were taken into consideration in this. The substrate used was (R)-2-chloromandelonitrile (ee>99%). The results are shown in Tab. 3."}, "[3]": {"test_system": "Rhodococcus erythropolis NCIMB 11540 cells", "experiment": "Enzymatic hydrolysis at different temperatures, Experiment 6.2", "assay_type": "cell-based", "conditions": "after 2 h, 10 g/l, 3% DMSO", "method": "In Experiment 6.2, the temperature was increased to 50° C.\nThe biocatalyst was produced according to Example 4, Experiment 4.3 (OD546 44). In each case 4.85 ml of the cell suspension (resting cells, OD546 44) were used for the enzymatic reactions. Reactions of 50 mg of (R)-2-chloromandelonitrile (>99%) ([S]=60 mM, 10 g/l), dissolved in 150 μl DMSO (3%) were carried out at 3 different temperatures (30° C., 40° C., 50° C.) in culture tubes at 150 rpm (parallel batches).\nas §1"}, "[4]": {"test_system": "Rhodococcus erythropolis NCIMB 11540 cells", "experiment": "Enzymatic hydrolysis at different substrate concentrations, Experiment 4.3", "assay_type": "cell-based", "conditions": "after 2 h, 3% DMSO, 40° C., resting cells", "method": "In experiment 4.3, reactions were carried out using 10 g/l and 15 g/l of (R)-2-chloromandelonitrile. In addition, after complete conversion, the ee of the hydroxy acid formed was determined.\nThe biocatalyst was produced according to Example 1, Variant II, 2.75 l of the fermentation medium, harvest after 20 hours. The cells were resuspended in approximately 200 ml of buffer (resting cells, OD546 44). In each case 4.85 ml of this cell suspension were used for the enzymatic reactions.\nTwo different concentrations of (R)-2-chloromandelonitrile were studied in parallel batches. The reaction was started by adding 150 μl of substrate solution and was carried out in culture tubes in the shaking cabinet at 40° C. and 150 rpm. The conversion rate was monitored by means of HPLC. At complete conversion, the hydroxy acid was extracted after acidification and the ee was determined. • a. 50 mg of (R)-2-chloromandelonitrile, dissolved in 150 μl of DMSO ([S]=60 mM, 10 g/l, cosolvent: 3% DMSO)"}, "[5]": {"test_system": "Rhodococcus erythropolis NCIMB 11540 cells", "experiment": "Enzymatic hydrolysis at different substrate concentrations, Experiment 4.2", "assay_type": "cell-based", "conditions": "5% DMSO, 30° C., resting cells", "method": "In experiment 4.2, the reaction was carried out using 2 different substrate concentrations (10 g/l, 20 g/l) on a 5 ml scale.\nThe biocatalyst was produced according to Example 1, Variant II, 2 l fermentation medium, harvest after 19 hours (OD546 8.4). The cells were resuspended in approximately 140 ml of buffer (resting cells, OD546 52). In each case 4.75 ml of this cell suspension were used for the enzymatic reactions.\nTwo different concentrations of (R)-2-chloromandelonitrile were studied in parallel batches. The reaction was started by adding 250 μl of substrate solution and was carried out in culture tubes in the shaking cabinet at 30° C. and 130 rpm. To monitor the conversion rate, in each case 200 μl were withdrawn and admixed with 200 μl of 1N HCl. After centrifugation (5 min, 13 000 rpm) and dilution, the conversion rates were determined by HPLC. • a. 50 mg of (R)-2-chloromandelonitrile, dissolved in 250 μl of DMSO ([S]=60 mM, 10 g/l, cosolvent: 5% DMSO)"}, "[6]": {"test_system": "Rhodococcus erythropolis NCIMB 11540 cells", "experiment": "Enzymatic hydrolysis using different cosolvents, Experiment 5.2", "assay_type": "cell-based", "conditions": "10 g/l, 30° C.", "method": "Here, the solvents DMSO, EtOH and ^iPrOH were again used at a fraction of 5%; the substrate concentration was 10 g/l of (R)-2-chloromandelonitrile. The reaction was carried out on a 5 ml scale.\nProduction of the biocatalyst Example 4, Experiment 4.2 (OD546 8.4). In each case 4.75 ml of the cell suspension (resting cells, OD546 52) were used for the enzymatic reactions. Reactions of (R)-2-chloromandelonitrile (>99%) dissolved in DMSO, EtOH and i-PrOH were carried out in culture tubes at 150 rpm and 30° C. (parallel batches).\nas §1, with “conversion,” for “reaction,”, “determined. • a. 50 mg of (R)-2-chloromandelonitrile, dissolved in 250 μl of DMSO ([S]=60 mM, 10 g/l, cosolvent: 5% DMSO)” for “determined.”"}, "[7]": {"target": "T1, Rhodococcus erythropolis NCIMB 11540 nitrile hydratase (Rhodococcus erythropolis, UniProt P13448+P13449)", "T1 construct": "made in house; host or cells: E. coli B BL21 (plasmid pMS470Nhase7.3 or pMSNhasetactac7.3), crude lysate", "T1 sequence (P13448 1-207)": "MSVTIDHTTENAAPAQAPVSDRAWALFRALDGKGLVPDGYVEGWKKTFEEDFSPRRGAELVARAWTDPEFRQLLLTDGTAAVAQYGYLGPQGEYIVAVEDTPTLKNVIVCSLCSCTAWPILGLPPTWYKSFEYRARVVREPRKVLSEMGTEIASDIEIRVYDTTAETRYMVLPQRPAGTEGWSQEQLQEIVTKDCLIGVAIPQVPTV", "T1 sequence (P13449 1-212)": "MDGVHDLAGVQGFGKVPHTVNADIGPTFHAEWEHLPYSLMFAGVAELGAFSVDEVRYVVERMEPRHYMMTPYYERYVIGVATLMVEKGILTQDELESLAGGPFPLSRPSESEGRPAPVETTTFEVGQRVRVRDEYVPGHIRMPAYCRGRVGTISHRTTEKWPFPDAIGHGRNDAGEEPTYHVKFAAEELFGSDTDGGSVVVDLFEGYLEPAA", "experiment": "Nitrile hydratase activity determination of crude lysates with methacrylonitrile", "assay_type": "biochemical", "conditions": "40 mM methacrylonitrile in PBS, 28° C.", "method": "The E. coli B BL21 cells transformed by pMS470Nhase7.3 (or pMSNhasetactac7.3) were isolated on LB-ampicillin plates and an ONC of 100 ml of LB-ampicillin medium was inoculated with an individual colony. On the next morning a main culture consisting of 250 ml of LB-ampicillin medium was inoculated in a 1000 ml chicane flask to an OD600 of 0.01 to 0.03 (Beckmann Photometer). The growth temperature was controlled at 25° C., since at higher temperatures insoluble inclusion bodies are formed exclusively. After the induction density was reached (OD600=1 Beckmann Photometer), the cultures were induced by adding IPTG to give a concentration of 0.1 mM. In addition, the media were supplemented with 0.1 mM ammonium iron(III) citrate. After reaching an OD600>4, the cultures were harvested (centrifugation at approximately 3000-g for 15 min) and washed once with approximately 100 ml of PBS buffer. […]\nActivity determination: crude lysates were diluted 1:10 with PBS buffer immediately before activity determination. […] After centrifugation (16 000·g, 10 minutes), the samples were analyzed spectrophotometrically at 224 nm (Perkin Elmer UV/VIS Spectrometer Lambda Bio). […]"}, "[8]": {"conditions": "lyophilized cells (19 mg/ml), 30 min"}, "[9]": {"conditions": "lyophilized cells (19 mg/ml), 60 min"}, "[10]": {"conditions": "lyophilized cells (19 mg/ml), 17 h"}, "[11]": {"conditions": "resting cells, 30 min, culture 1 (OD546 3.5)"}}, "data": [{"smiles": "N#C[C@H](O)c1ccccc1Cl", "note": "[(R)-2-chloromandelonitrile]", "values": [{"measurement": "hydroxy acid formed", "setting": "[1]; T=30° C.", "value": 42, "unit": "%"}, {"measurement": "hydroxy acid formed", "setting": "[1]; T=35° C.", "value": 65, "unit": "%"}, {"measurement": "hydroxy acid formed", "setting": "[1]; T=40° C.", "value": 86, "unit": "%"}, {"measurement": "Conversion rate CH (cyanohydrin)", "setting": "[2]; [8]", "value": 40, "unit": "%"}, {"measurement": "Conversion rate HA (hydroxyamide)", "setting": "[2]; [8]", "value": "<1", "unit": "%"}, {"measurement": "Conversion rate CH (cyanohydrin)", "setting": "[2]; [9]", "value": 41, "unit": "%"}, {"measurement": "Conversion rate HA (hydroxyamide)", "setting": "[2]; [9]", "value": 0, "unit": "%"}, {"measurement": "Conversion rate CH (cyanohydrin)", "setting": "[2]; [10]", "value": 43, "unit": "%"}, {"measurement": "Conversion rate HA (hydroxyamide)", "setting": "[2]; [10]", "value": "<1", "unit": "%"}, {"measurement": "Conversion rate CH (cyanohydrin)", "setting": "[2]; [11]", "value": 100, "unit": "%"}, {"measurement": "Conversion rate HA (hydroxyamide)", "setting": "[2]; [11]", "value": 2, "unit": "%"}, {"measurement": "Conversion rate HA (hydroxyamide)", "setting": "[2]; resting cells, 60 min, culture 1 (OD546 3.5)", "value": 4, "unit": "%"}, {"measurement": "Conversion rate HA (hydroxyamide)", "setting": "[2]; resting cells, 17 h, culture 1 (OD546 3.5)", "value": 42, "unit": "%"}, {"measurement": "hydroxy acid formed", "setting": "[3]; T=30° C.", "value": 42, "unit": "%"}, {"measurement": "hydroxy acid formed", "setting": "[3]; T=40° C.", "value": 80, "unit": "%"}, {"measurement": "hydroxy acid formed", "setting": "[3]; T=50° C.", "value": 92, "unit": "%"}, {"measurement": "hydroxy acid formed", "setting": "[4]; 10 g/l (60 mM)", "value": 80, "unit": "%"}, {"measurement": "hydroxy acid formed", "setting": "[4]; 15 g/l (90 mM)", "value": "approximately 60%"}, {"measurement": "hydroxy acid formed", "setting": "[5]; after 2 h, 10 g/l (60 mM)", "value": "approximately 40%"}, {"measurement": "hydroxy acid formed", "setting": "[5]; after 18 h, 20 g/l (120 mM)", "value": 36, "unit": "%"}, {"measurement": "hydroxy acid formed", "setting": "[5]; after 43 h, 20 g/l (120 mM)", "value": 41, "unit": "%"}, {"measurement": "hydroxy acid formed", "setting": "[6]; after 2 h, cosolvent 5% DMSO", "value": "approximately 40%"}, {"measurement": "hydroxy acid formed", "setting": "[6]; after 3 h, cosolvent 5% EtOH", "value": 35, "unit": "%"}, {"measurement": "hydroxy acid formed", "setting": "[6]; after 3 h, cosolvent 5% i-PrOH", "value": 8, "unit": "%"}, {"measurement": "hydrolysis to form the hydroxy acid complete", "setting": "[6]; after 19 h, cosolvent 5% EtOH", "value": 94, "unit": "%"}, {"measurement": "hydroxy acid formed", "setting": "[6]; after 44 h, cosolvent 5% i-PrOH", "value": 64, "unit": "%"}]}, {"smiles": "C=C(C)C#N", "note": "[methacrylonitrile]", "values": [{"measurement": "typical activity of crude lysates", "setting": "[7]; pMS470Nhase7.3 lysate", "value": "100-250 U/ml"}, {"measurement": "typical activity of crude lysates", "setting": "[7]; pMSNhasetactac7.3 lysate", "value": "350-500 U/ml"}]}]}
